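Protocol summary: plate cells (96-well), add compound at 5 concentrations, incubate 48 h, interpolate endpoints linearly. At the TGI there is no net growth.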 Where a SMILES comes first, the peptide text is derived from it. The star is where a group is joined. Boc = CC(C)(C)OC(=O)*; OtBu = CC(C)(C)O*
Tests used:
Assay in all cases: NCI anticancer screen, dose series, 48 h
SK-OV-3 ovarian = tested on: SK-OV-3 ovarian
UACC-62 melanoma = tested on: UACC-62 melanoma
UO-31 renal = tested on: UO-31 renal
SF-539 CNS = tested on: SF-539 CNS
NCI-H23 lung = tested on: NCI-H23 lung
HCC-2998 colon = tested on: HCC-2998 colon
SNB-19 CNS = tested on: SNB-19 CNS
A549 NSCLC = tested on: A549 NSCLC
DU-145 prostate = tested on: DU-145 prostate
M14 melanoma = tested on: M14 melanoma
SN12C renal = tested on: SN12C renal
NCI-H460 lung = tested on: NCI-H460 lung
SW-620 colon = tested on: SW-620 colon
MCF7 breast = tested on: MCF7 breast
CCRF-CEM leukemia = tested on: CCRF-CEM leukemia
CAKI-1 renal = tested on: CAKI-1 renal
SNB-75 CNS = tested on: SNB-75 CNS
MDA-MB-231 breast = tested on: MDA-MB-231 breast
TK-10 renal = tested on: TK-10 renal

| SMILES | TGI (SK-OV-3 ovarian) [µM] | TGI (UACC-62 melanoma) [µM] | TGI (UO-31 renal) [µM] | TGI (SF-539 CNS) [µM] | TGI (NCI-H23 lung) [µM] | TGI (HCC-2998 colon) [µM] | TGI (SNB-19 CNS) [µM] | TGI (A549 NSCLC) [µM] | TGI (DU-145 prostate) [µM] | TGI (M14 melanoma) [µM] | TGI (SN12C renal) [µM] | TGI (NCI-H460 lung) [µM] | TGI (SW-620 colon) [µM] | TGI (MCF7 breast) [µM] | TGI (CCRF-CEM leukemia) [µM] | TGI (CAKI-1 renal) [µM] | TGI (SNB-75 CNS) [µM] | TGI (MDA-MB-231 breast) [µM] | TGI (TK-10 renal) [µM] |
| --- | --- | --- | --- | --- | --- | --- | --- | --- | --- | --- | --- | --- | --- | --- | --- | --- | --- | --- | --- |
| CSc1ccc(/C=C2\N=C(c3ccccc3)N(NC(=O)c3c(Cl)c(Cl)c(Cl)c(Cl)c3-c3nc4ccccc4[nH]3)C2=O)cc1 | > 100 | 59 | > 100 | > 100 | 83 | 39.3 | > 100 | > 100 | > 100 | > 100 | > 100 | 28 | > 100 | > 100 | > 100 | 85.3 | 46.6 |  |  |
| COc1ccc(N(c2ccc(C#N)cc2)c2ccc(C#N)cc2)cc1 | > 100 | > 100 | > 100 | > 100 | > 100 |  | > 100 | > 100 | > 100 | > 100 | > 100 | > 100 | > 100 | > 100 | > 100 | > 100 | > 100 | > 100 | > 100 |
| O=C(c1ccccc1)N1N=C(C(F)(F)F)CC1(O)C(F)(F)F (stereo not given) |  |  | > 100 | > 100 | > 100 | > 100 | > 100 | > 100 | > 100 | > 100 | > 100 | > 100 | > 100 | > 100 | > 100 |  | > 100 | > 100 | > 100 |
| CC(C)(C)OC(=O)CC(NC(=O)OC(C)(C)C)C(=O)NC(Cc1ccccc1)C(N)=O (stereo not given) (Boc-Asp(OtBu)-Phe-NH2; configuration not given here) | > 100 |  | > 100 | > 100 | > 100 |  | > 100 | > 100 | > 100 | > 100 | > 100 | > 100 | > 100 | > 100 | > 100 | > 100 | > 100 | > 100 | > 100 |
| Cc1c(CNc2ccc(Cl)c(Cl)c2Cl)cnc2nc(N)nc(N)c12 | > 52.4 | 15.8 | > 100 | 12.2 | > 49.3 | > 100 | > 59.9 | > 41.3 |  | > 100 | > 100 | > 48.9 | > 70.1 | > 46.7 | 6.55 | > 100 | 24.3 |  | 48.3 |
| NC(C(=O)O)C(O)c1cnc[nH]1 (stereo not given) | > 100 | > 100 |  | > 100 | > 100 |  | > 100 | > 100 | > 100 | > 100 | > 100 | > 100 | > 100 | > 100 | > 100 | > 100 | > 100 | > 100 | > 100 |
| C[N+](C)(C)CC(=O)N/N=C\c1c(O)ccc2ccccc12 | > 100 | > 100 | > 100 | > 100 | > 100 |  | > 100 | > 100 | > 100 | > 100 | > 100 | 70.5 | > 100 | > 100 | 76.1 | > 100 | 71.1 | > 100 | > 100 |

— PubChem BioAssay (NCI)
